Assay results from publication PMC5820112 (Journal of molecular and cellular cardiology, 2017).

Experiments:
[1] = target: T1, CaMKIIδ (Ca2+/calmodulin-dependent protein kinase II delta) (Homo sapiens, UniProt Q13557); assay: continuous coupled spectrophotometric kinase assay with autocamtide-3; format: biochemical
[2] = target: T1, CaMKIIδ (Ca2+/calmodulin-dependent protein kinase II delta); assay: as above; format: biochemical; remark: listed apart in the source

T1 sequence (Q13557 2-499): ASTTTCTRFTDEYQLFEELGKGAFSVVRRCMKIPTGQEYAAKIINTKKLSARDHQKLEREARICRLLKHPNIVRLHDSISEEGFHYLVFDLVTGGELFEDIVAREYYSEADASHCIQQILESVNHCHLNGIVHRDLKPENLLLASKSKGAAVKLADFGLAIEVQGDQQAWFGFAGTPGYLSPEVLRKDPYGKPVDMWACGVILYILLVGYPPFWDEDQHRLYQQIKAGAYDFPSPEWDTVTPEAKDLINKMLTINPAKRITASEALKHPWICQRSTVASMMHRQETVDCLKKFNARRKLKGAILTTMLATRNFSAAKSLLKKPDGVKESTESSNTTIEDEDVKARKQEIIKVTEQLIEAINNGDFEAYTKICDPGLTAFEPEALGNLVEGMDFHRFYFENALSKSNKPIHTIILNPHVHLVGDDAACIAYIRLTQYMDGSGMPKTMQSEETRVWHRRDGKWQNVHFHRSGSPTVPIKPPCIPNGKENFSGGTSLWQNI

IC50 [1] [nM] | Molecule | Ki [2] [nM]
1400 | COc1ccc(S(=O)(=O)N(CCO)c2ccccc2CN(C)C/C=C/c2ccc(Cl)cc2)cc1 [KN-93] | –
– | AS105 | 3
